Values of other authors as cited in patent US20200360403A1, “OPTHALMIC COMPOSITIONS FOR INHIBITING CLOUDING OF THE OCULAR LENS” (priority 2019, published 2020).

Assays:
[1] = test system: aggregated lens protein; conditions: all studies by Daszynski et al.
[2] = test system: cffl-crystallins; conditions: compared to ATP

| SMILES | anti-cataractogenic activity or binding of aggregated lens protein to dissolve cataracts [1] | binding scores for good predictive binding to the crystallins [2] |
| --- | --- | --- |
| C[C@H](CCCC(C)(C)O)[C@H]1CC[C@H]2[C@@H]3CC=C4C[C@@H](O)CC[C@]4(C)[C@H]3CC[C@]12C [25-hydroxycholesterol] | failed to provide evidence | failed to reach the acceptable threshold binding scores |
| CC(C)=CCC[C@@H](C)[C@H]1CC[C@@]2(C)C3=C(CC[C@]12C)[C@@]1(C)CC[C@H](O)C(C)(C)[C@@H]1CC3 [lanosterol] | failed to provide evidence | failed to reach the acceptable threshold binding scores |
